Common to all, as to type: cell-based, human
In one experiment the test system is SW620. Put plainly: Cell death (trypan blue uptake). The settings on record: SW620, subconfluent, N6 or N7 20 μM, mean of at least 2 independent experiments. The protocol:
(§1) Human breast (MDA-MB-231, MDA-MB-435 [37]), prostate (LNCaP, from American Type Culture Collection, ATCC, Rockville, MD), and cervical (HeLa) epithelial cancer cells were grown in DMEM-glutamax medium (Gibco Invitrogen, Cergy-Pontoise, France) containing GlutaMAX™, 4.5 g/l glucose and supplemented with 10% heat-inactivated (56°C for 30 min) fetal bovine serum (FBS; Hyclone, Thermo Fisher Scientific, Inc). Human SW480 cells are derived from a grade 3-4 colon carcinoma, while the highly metastatic counterpart SW620 is established from the lymph node of a person. Both SW480 and SW620 cells (obtained from Francis Raul, IRCAD) are highly tumorigenic in nude mice. They were cultured in D-MEM, 10% FCS. The murine melanoma TIII cell line was obtained from Armelle Prévost-Blondel. Murine T29 lymphoma cells, obtained from Philippe Kastner (CNRS, Strasbourg), have been established from Ik^L/L tumors from mice carrying a hypomorphic mutation (Ik^L/L) in the Ikaros gene encoding a transcription factor that regulates lymphocyte differentiation, and acts also as a tumor suppressor in T lymphocytes. The T29 cells were cultured in RPMI medium containing 25 mM Hepes pH 7.6, 1 mM sodium pyruvate, and 10% FCS. Human leukemia cell lines, Jurkat (acute T cell leukemia), HuT 78 (cutaneous T lymphocyte), RAJI (Burkitt lymphoma), and HL60 (promyelocytic leukemia) were cultured in RPMI-1640 medium (Gibco) containing GlutaMAX™, and supplemented with 10% heat-inactivated FBS as described before. The wild-type Chinese hamster ovary cell line (CHO K1) was purchased from American Type Culture Collection (ATCC; Rockville, MD). The CHO LRP1-null cell line (CHO-13-5-1) was kindly provided by D. Strickland [47]. They were cultured in Ham's F12K medium. All cells were cultured with 10% (v/v) heat inactivated (56°C, 30 min) fetal bovine serum (FBS) (Roche Molecular Biochemicals, Indianapolis, IN) and 50 international units/mL penicillin-streptomycin (Invitrogen). Cell death was monitored conveniently by uptake of the trypan blue dye due to plasma membrane permeability of dying and/or dead cells.

The next experiment has as its system LNCaP. Put plainly: Cell death (trypan blue uptake). The settings on record: subconfluent, N6 or N7 20 μM, mean of at least 2 independent experiments. The method, then: as §1
The next experiment concerns RAJI. The experiment is described as follows: Cell death (trypan blue uptake). The settings on record: freshly passaged, N6 or N7 20 μM, mean of at least 2 independent experiments. The method, then: as §1
A further experiment relates to MDA-MB 231. The experiment is described as follows: Cell death (trypan blue uptake). The settings on record: MDA-MB 231, subconfluent, N6 or N7 20 μM, mean of at least 2 independent experiments. The method, then:
as §1

The test system of another experiment is HeLa. Put plainly: Cell death (trypan blue uptake). The settings on record: subconfluent, N6 or N7 20 μM, mean of at least 2 independent experiments. The method, then: as §1
The subject of a further experiment is Jurkat. Put plainly: Cell death (trypan blue uptake). The settings on record: freshly passaged, N6 or N7 20 μM, mean of at least 2 independent experiments. The method, then:
as §1

The next experiment deals with MDA-MB 435. The experiment is described as follows: Cell death (trypan blue uptake). The settings on record: MDA-MB 435, subconfluent, N6 or N7 20 μM, mean of at least 2 independent experiments. The protocol: as §1
The next experiment deals with HuT 78. Put plainly: Cell death (trypan blue uptake). The settings on record: HuT 78, freshly passaged; N6 or N7 20 μM; trypan blue uptake; mean of at least 2 independent experiments. The protocol: as §1, with “cells. […]” for “cells.”
Another experiment has as its system surface nucleolin. The experiment is described as follows: HIV-1 LAI entry into HeLa-CD4-LTR-LacZ cells (β-galactosidase): function of surface nucleolin. The settings on record: 0.05-0.8 μM, β-galactosidase at 48 h post-infection. From the text: Surface nucleolin serves as a low affinity receptor implicated in the binding and entry of HIV-1 particles into permissive cells. Consequently, HB-19 treatment of cells prevents HIV binding to cells and thus HIV entry and infection. Here HIV-1 LAI entry was monitored in HeLa-CD4-LTR-LacZ cells containing the bacterial lacZ gene under the control of HIV-1 LTR. Virus entry and replication result in trans-activation of HIV-1 LTR by the viral Tat protein, leading to the expression of β-galactosidase. At 48 h post-infection, cell monolayers are lysed in a phosphate buffer containing Nonidet P-40 (Sigma) (1%; v ⁄ v) and assayed for β-galactosidase activity by measuring optical density at 570 nm.
Figure 2 HB-19 and related Nucant pseudopeptides antagonize surface nucleolin and trigger its down regulation. A. Multivalent pseudopeptides block the biological function of surface nucleolin for HIV entry. […] At 48 h post-infection, the β-galactosidase activity was measured in cell extracts directly to monitor HIV entry (Methods). The abscissa gives % Activity of surface nucleolin calculated from the optical density measurements at 570 nm. […] Cytoplasmic (containing cytoplasmic as well as surface nucleolin) and nuclear extracts were analyzed by immunoblotting using mAb D3 as described (Methods)(panels Surface/cytoplasmic NCL, Nuclear NCL). […]

The text below walks through data of article PMC3199867, “Targeting surface nucleolin with multivalent HB-19 and related Nucant pseudopeptides results in distinct inhibitory mechanisms depending on the malignant tumor cell type” (BMC Cancer, 2011).

A value given as a limit tells only on which side of the number the result lay.

Consider “Ac-KAKPGKAKPGKAKPG-NH2 [Nucant N7, Presents hexavalently the pseudo-tripeptide Lysψ(CH2N)-Pro-Arg coupled to a similar template as in HB-19]”, for which the “% Cell death After 24 hours” value in the experiment with SW620 is recorded as under 5%; in the experiment on LNCaP it was under 5%; in the experiment with RAJI, 42%; in the experiment with MDA-MB 231, under 5%; in the experiment with HeLa it was under 5%; with Jurkat, 45%. The “% Cell death After 24 hours” value in the experiment with MDA-MB 435 is on record as under 5%; with HuT 78, 44%. Moreover, the “inhibitory activity on HIV-1 entry, fold more active compared to the pentavalent constructs N3 and HB-19” value in the experiment on surface nucleolin is reported as “at least 2 fold”.
With “Ac-Lys-Aib-Gly-Lys-Aib-Gly-Lys-Aib-Gly-Lys-Aib-Gly-Lys-Aib-Gly-Lys-Aib-Gly-CONH2 [Nucant N6, Presents hexavalently the pseudo-tripeptide Lysψ(CH2N)-Pro-Arg coupled to the polypeptide template containing Aib]”, the “% Cell death After 24 hours” value is given as under 5% in the experiment with SW620; under 5% with LNCaP; 42% in the experiment on RAJI; under 5% in the experiment on MDA-MB 231; under 5% in the experiment on HeLa; 45% in the experiment with Jurkat. The “% Cell death After 24 hours” value in the experiment with MDA-MB 435 was under 5%; in the experiment with HuT 78, 44%. Further, the “inhibitory activity on HIV-1 entry, fold more active compared to the pentavalent constructs N3 and HB-19” value in the experiment on surface nucleolin is on record as “at least 2 fold”.
